Source: patent EP4527828A1, “BIPHENYL COMPOUND, PHARMACEUTICAL COMPOSITION, METHOD FOR PREPARING SAME, AND USE THEREOF” (Longivitron (Suzhou) Biotechnology Co., Ltd, priority 2022, dated 2023)
Like-named read-outs stand apart in the source and are kept apart here.

Experiments:
LAG3/MHCII = target: T1, LAG3/MHCII (Homo sapiens, UniProt P18627); assay: HTRF binding inhibition of LAG3 and its ligand MHCII; conditions: binding inhibition LAG3/MHCII
T1 sequence (P18627 23-450 limits assumed): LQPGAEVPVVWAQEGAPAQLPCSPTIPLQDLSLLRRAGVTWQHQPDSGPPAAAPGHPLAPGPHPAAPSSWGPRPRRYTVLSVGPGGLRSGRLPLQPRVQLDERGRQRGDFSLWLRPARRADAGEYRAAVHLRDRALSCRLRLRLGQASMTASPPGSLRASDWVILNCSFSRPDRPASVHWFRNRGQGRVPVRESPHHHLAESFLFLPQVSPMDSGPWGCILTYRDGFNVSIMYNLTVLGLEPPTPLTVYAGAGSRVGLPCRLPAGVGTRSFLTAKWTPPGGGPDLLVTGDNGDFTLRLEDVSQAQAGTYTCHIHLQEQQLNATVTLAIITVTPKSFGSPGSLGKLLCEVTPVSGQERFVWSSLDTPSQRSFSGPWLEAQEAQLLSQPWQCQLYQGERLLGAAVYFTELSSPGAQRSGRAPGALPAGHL
Procedure: HTRF (Homogeneous time-resolved fluorescence) is based on two techniques, fluorescence resonance energy transfer (FRET) and time-resolved fluorescence (TRF). The detection was carried out using a 384-well plate. 2 µL of a compound to be tested with an appropriate concentration was collected, 4 µL of Tag1-LAG3 protein (with a final concentration of 10 nmol·L^-1) was added, 4 µL of Tag2-MHCII (with a final concentration of 20 nmol·L^-1) was added, and the plate was incubated at room temperature for 15 min. 10 µL of Anti-Tag1-Tb working solution (prepared by adding 25 µL of Anti-Tag1-Tab mother solution to 2475 µL of dilution buffer) was added, 10 µL of Anti-Tag2-XL665 working solution (prepared by adding 25 µL of Tag2-XL665 mother solution to 2475 µL of dilution buffer) was added, and the plate was sealed with a film and incubated at room temperature for 1 h. The detection was carried out using a Perkin Elma Envision instrument.

Mouse LAG3 protein = target: T2, Mouse LAG3 protein (Mus musculus, UniProt Q61790); assay: SPR interaction assay, CM5 chip amino coupling, mouse LAG3; assay type: binding; conditions: for Kd / Rmax / Note / kon / koff: ligand Mouse LAG3 protein; for Note: bound or not bound; for kon: read-out: Ka; for koff: read-out: Kd
T2 sequence (Q61790 24-521): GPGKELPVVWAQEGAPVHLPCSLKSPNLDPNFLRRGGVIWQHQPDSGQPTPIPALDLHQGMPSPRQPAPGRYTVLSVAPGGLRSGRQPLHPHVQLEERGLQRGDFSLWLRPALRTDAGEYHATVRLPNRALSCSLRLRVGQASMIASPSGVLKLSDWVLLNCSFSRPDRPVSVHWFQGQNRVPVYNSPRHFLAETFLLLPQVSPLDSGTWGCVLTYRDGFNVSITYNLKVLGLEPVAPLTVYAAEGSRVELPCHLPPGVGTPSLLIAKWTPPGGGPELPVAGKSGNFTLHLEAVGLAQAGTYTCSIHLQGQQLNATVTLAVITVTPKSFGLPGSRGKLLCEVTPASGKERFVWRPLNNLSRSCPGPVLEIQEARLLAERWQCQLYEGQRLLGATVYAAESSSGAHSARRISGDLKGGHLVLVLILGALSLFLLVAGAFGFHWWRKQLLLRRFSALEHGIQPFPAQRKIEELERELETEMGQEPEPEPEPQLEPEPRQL
From the text: (§1) A surface plasmon is an electromagnetic wave on a metal surface and is generated by the interaction of photons and electrons which are freely vibrated. Surface plasmon resonance (SPR) is an optical phenomenon that occurs on the surfaces of two media, and such a phenomenon can be induced by photons or electrons. When light enters an optically thinner medium from an optically denser medium, the phenomenon of total reflection occurs, and an evanescent wave is generated and enters the optically thinner medium. When the totally reflected evanescent wave meets the plasmon wave on the metal surface, resonance may occur, the energy of the reflected light decreases, and a resonance peak occurs on the energy spectrum of the reflected light. Such a resonance is called surface plasmon resonance. The angle of incidence causing the surface plasmon resonance is called an SPR angle. An SPR biosensor provides a sensitive, non-labeled detection technique for monitoring intermolecular interactions in real time. The sensor detects the change in the SPR angle, and the SPR is related to the refractive index of the metal surface. When an analyte binds to the chip surface, the refractive index of the chip surface changes, thus causing the change in the SPR angle. This is the basic principle for the SPR biosensor to detect intermolecular interactions in real time. During the interaction analysis, the change in the SPR angle is recorded on the sensorgram in real time.
Through the information query, the theoretical isoelectric point of the LAG3 protein is about 9.82, and the amino coupling method was contemplated to immobilize the protein. Since the main ligands of the LAG3 protein are FGL1 and MHCII proteins, after the LAG3 protein was coupled, the FGL1 protein sampling method was used to verify the protein activity.
(§2) Protein coupling buffer solution: 1.05× PBS-P+; 1.02× PBS-P+
(§3) Interaction buffer solution: 1.0× PBS-P+, 5% DMSO; 1.0× PBS-P+, 2% DMSO
In this experiment, by using the CM5 chip amino coupling method, the human LAG3 protein was immobilized to the Fc2 or Fc3 channel, and the mouse LAG3 protein was immobilized to the Fc3 or Fc4 channel.
LAG3 protein coupling conditions were as follows: the concentration was about 25 µg/mL, the system was sodium acetate solution with a pH of 5.5, the chip activation time was 420 s, and the blocking time was 420 s.
LAG3 protein coupling conditions were as follows: the concentration was about 50 µg/mL, the system was sodium acetate solution with a pH of 4.5, the chip activation time was 420 s, and the blocking time was 420 s.

Human FGL1 protein = target: T3, Human FGL1 protein (Homo sapiens, UniProt Q08830); assay: SPR interaction assay, human FGL1; assay type: binding; conditions: for Note: bound or not bound; for kon: read-out: Ka; for koff: read-out: Kd
T3 sequence (Q08830 23-312): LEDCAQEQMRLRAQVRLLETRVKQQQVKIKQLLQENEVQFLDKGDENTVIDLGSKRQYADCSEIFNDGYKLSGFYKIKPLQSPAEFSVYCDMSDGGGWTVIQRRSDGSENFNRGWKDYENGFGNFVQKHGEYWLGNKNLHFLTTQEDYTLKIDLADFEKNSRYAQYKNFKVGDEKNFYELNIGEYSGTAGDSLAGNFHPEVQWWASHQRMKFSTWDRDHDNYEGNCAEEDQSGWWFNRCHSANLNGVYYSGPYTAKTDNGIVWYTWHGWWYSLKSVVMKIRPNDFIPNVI
From the text: as §1, §2, §3

[1] = SPR, ligand FGL1 protein, read-out: KD
[2] = text summary of Table 4, read-out: affinities with the new ligand FGL1 of LAG3

SMILES	IC50 (LAG3/MHCII)	interaction with the mouse LAG3 protein (Mouse LAG3 protein)	Kd (Mouse LAG3 protein)	Rmax (Mouse LAG3 protein)	Note (Mouse LAG3 protein)	kon (Mouse LAG3 protein)	koff (Mouse LAG3 protein)	interaction with the human FGL1 protein (Human FGL1 protein; SPR)	Rmax (Human FGL1 protein; SPR, ligand FGL1 protein)	Note (Human FGL1 protein; SPR, ligand FGL1 protein)	Kd (Human FGL1 protein; [1])	kon (Human FGL1 protein; SPR, ligand FGL1 protein)	koff (Human FGL1 protein; SPR, ligand FGL1 protein)	Kd (Human FGL1 protein; [2])
CCCCCCOc1ccc2cc1-c1cc(ccc1OCCCCCC)C(=O)CCCCCC2=O [Compound 4]	18 µM	interacts with the mouse LAG3 protein	13.2 µM	5.214 RU	Bound	1060 M⁻¹ s⁻¹	0.014 s⁻¹	interacts with the human FGL1 protein	14.02 RU	Bound	23.2 µM	2130 M⁻¹ s⁻¹	0.0504 s⁻¹	~10 µM
CCCCCCOc1ccc(C(=O)O)cc1-c1cc(C(=O)NCCCCNC(=O)C(F)(F)F)ccc1OCCCCCC [Compound 8]	8.34 µM	interacts with the mouse LAG3 protein	5.42 µM	3.955 RU	Bound	1870 M⁻¹ s⁻¹	0.0101 s⁻¹	interacts with the human FGL1 protein	28.91 RU	Bound	15.7 µM	1470 M⁻¹ s⁻¹	0.0231 s⁻¹	~10 µM
